Values after ≈ are worked out from the molar mass of the structure shown. Like-named read-outs stand apart in the source and are kept apart here.
Columns and labels:
[1] = test system: E. coli K-12 strain SH3210; experiment: Anucleate cell blue assay; assay type: cell-based
Method: Anucleate cell blue assay. The anucleate cell blue assay was carried out as reported previously. Briefly, E. coli K-12 strain SH3210 (ΔtrpE5 his λ pXX747) was grown in a P medium containing 1% Polypepton and 0.5% NaCl (pH 7). Paper disks (φ 8 mm) each soaked with 20 μl of a sample solution were placed on P medium agar plates (1.5% agar) containing 10^4 cells/ml of SH3210 and 40 μg/ml of 5-bromo-4-chloro-3-indolyl β-D-galactoside. The plates were incubated at 42° C. for 24 h, and the development of a blue color and the growth inhibitory zone around the paper disks were evaluated.
Since 1 had originally been found through screening by an anucleate cell blue assay, the effect of each compound was first examined by this assay.

E. coli MG1655 [2] = experiment: Determination of minimum inhibitory concentration (MIC); assay type: cell-based; settings: for MIC: Escherichia coli; for MIC E. coli: Example 2
Method: (§1) Determination of minimum inhibitory concentration (MIC). MICs were also determined on Mueller Hinton agar plates (0.2% beef extract, 1.75% acid digest of casein, 0.15% soluble starch, 1.5% agar, pH 7.3).
(§2) Determination of MIC Minimal inhibitory concentrations (MICs) were determined using a standard 2-fold serial dilution format on L agar plates. Ten microliters of stationary culture diluted in 0.85% NaCl to 10^6 cells/ml were spotted on per plate. […] MICs were also determined on Mueller Hinton agar plates (0.2% beef extract, 1.75% acid digest of casein, 0.15% soluble starch, 1.5% agar, pH 7.3).

P. putida NBRC14164 = experiment: as above; assay type: cell-based, Pseudomonas putida; settings: for MIC: Pseudomonas putida; for MIC P. putida: Example 2
Method: as §1, §2

S. typhimurium NBRC13245 = experiment: as above; assay type: cell-based, Salmonella typhimurium; settings: for MIC: Salmonella enterica, read-out: MIC S. typhimurium
Method: as §1, §2

B. subtilis 168 = experiment: as above; assay type: cell-based, Bacillus subtilis; settings: for MIC B. subtilis: Example 2
Method: as §1, §2

[3] = test system: S. aureus subsp. aureus NBRC15035; experiment: as above; assay type: cell-based, Staphylococcus aureus; settings: for MIC: Staphylococcus aureus; for MIC S. aureus: Example 2
Method: as §1, §2

E. coli MG1655 [4] = experiment: Microscopic observation of cell shape; assay type: cell-based; settings: for Effect on E. coli cell morphology (in words): 3×MIC or 300 μg/ml, 16 hrs
Method: Microscopic observation. E. coli K-12 strain MG1655 (F^− λ^−) was grown in Lennox broth containing 1% Polypepton, 0.5% yeast extract, 0.5% NaCl, and 0.1% glucose (pH 7.2). Cells spread on a slide glass were treated with methanol for 5 min and covered with poly-L-lysine. The fixed cells were observed by the differential interference contrast system through an Axioskop 2 microscope (Carl Zeiss Co., Ltd., Oberkochen, Germany). To observe the anucleate cells, cells were stained with a 4′,6-diamidino-2-phenylindole (DAPI) solution (5 μg/ml in saline) and then observed by the fluorescence phase-contrast combined method.
The effect of each compound on E. coli cell morphology was next examined.

[5] = MG1655, Example 2, methods as in Example 1, read-out: MIC E. coli
[6] = MG1655, Table 1, E. coli MG1655, read-out: MIC E. coli
[7] = NBRC14164, Example 2, methods as in Example 1, read-out: MIC P. putida
[8] = NBRC14164, Table 1, NBRC14164, read-out: MIC P. putida
[9] = Example 2, methods as in Example 1
[10] = Bacillus subtilis, 168, Example 2, methods as in Example 1, read-out: MIC B. subtilis
[11] = Bacillus subtilis, 168, Table 1, B. subtilis 168, read-out: MIC B. subtilis
[12] = NBRC15035, Example 2, methods as in Example 1, read-out: MIC S. aureus
[13] = NBRC15035, Table 1, NBRC15035, read-out: MIC S. aureus
[14] = E. coli MG1655 treated at 3×MIC (*), 30° C., 16 h
[15] = NBRC14164, read-out: MIC P. putida
[16] = Bacillus subtilis, 168, read-out: MIC B. subtilis
[17] = NBRC15035, read-out: MIC S. aureus
[18] = E. coli MG1655 treated at 300 μg/ml (**), 30° C., 16 h

Compound | Growth inhibitory zone and blue zone in the anucleate cell blue assay (in words) [1] | MIC (E. coli MG1655 [2]; [5]) [µg/mL] | MIC (E. coli MG1655 [2]; [6]) [µg/mL] | MIC (P. putida NBRC14164; [7]) [µg/mL] | MIC (P. putida NBRC14164; [8]) [µg/mL] | MIC (S. typhimurium NBRC13245; [9]) [µg/mL] | MIC (S. typhimurium NBRC13245; Table 1, NBRC13245) [µg/mL] | MIC (B. subtilis 168; [10]) [µg/mL] | Shape (E. coli MG1655 [4]; [9]) | MIC (E. coli MG1655 [2]; MG1655, read-out: MIC E. coli) [µg/mL] | MIC E. coli (E. coli MG1655 [2]; methods as in Example 1) [µg/mL] | MIC P. putida (P. putida NBRC14164; methods as in Example 1) [µg/mL] | MIC (P. putida NBRC14164; [15]) [µg/mL] | MIC S. typhimurium (S. typhimurium NBRC13245; [9]) [µg/mL] | MIC (S. typhimurium NBRC13245) [µg/mL] | MIC (B. subtilis 168; [16]) [µg/mL] | MIC B. subtilis (B. subtilis 168; methods as in Example 1) [µg/mL] | MIC S. aureus ([3]; methods as in Example 1) [µg/mL] | MIC [3, 17] [µg/mL] | Shape (E. coli MG1655 [4]; [18]) | also measured
N=C(N)SCc1ccc(Cl)cc1 [Compound 2, S-(4-chlorobenzyl)isothiourea] | deep blue zone around a growth inhibitory zone almost comparable to those of 1 | 3.13 (≈ 15.6 µM) | 3.13 (≈ 15.6 µM) | > 100 | > 100 | 3.13 (≈ 15.6 µM) | 3.13 (≈ 15.6 µM) | > 100 | Sphere | – | – | – | – | – | – | – | – | – | – | – | MIC (B. subtilis 168; [11]): > 100 µg/mL; MIC [3, 12]: > 100 µg/mL; MIC [3, 13]: > 100 µg/mL; Effect on E. coli cell morphology (in words) (E. coli MG1655 [4]; 30° C.): induced a spherical cell shape; Shape (E. coli MG1655 [4]; [14]): Sphere*
CCSC(=N)N [Compound 6, S-ethylisothiourea] | neither a growth inhibitory zone nor blue zone | – | – | – | – | – | – | – | Rod | > 100 | >100 | >100 | > 100 | >100 | > 100 | > 100 | >100 | >100 | > 100 | Rod** | –
N#CSCc1ccccc1 [Compound 7, S-benzylithiocyanate, reference compound] | neither a growth inhibitory zone nor blue zone | – | – | – | – | – | – | – | Rod | > 100 | >100 | >100 | > 100 | >100 | > 100 | > 100 | >100 | >100 | > 100 | – | Shape (E. coli MG1655 [4]; [14]): Rod*
O=C=NCc1ccccc1 [Compound 9, benzylisocyanate, reference compound] | neither a growth inhibitory zone nor blue zone | – | – | – | – | – | – | – | Rod | > 100 | >100 | >100 | > 100 | >100 | > 100 | > 100 | >100 | >100 | > 100 | Rod** | –
N=C(N)SCc1ccccc1 [Compound 3, S-benzylisothiourea] | blue zone just around the paper disk, but only a marginal growth inhibitory zone was detected | 100 (≈ 602 µM) | 100 (≈ 602 µM) | > 100 | > 100 | > 100 | > 100 | > 100 | Sphere | – | – | – | – | – | – | – | – | – | – | – | MIC (B. subtilis 168; [11]): > 100 µg/mL; MIC [3, 12]: > 100 µg/mL; MIC [3, 13]: > 100 µg/mL; Effect on E. coli cell morphology (in words) (E. coli MG1655 [4]; 30° C.): induced a spherical cell shape; Shape (E. coli MG1655 [4]; [14]): Sphere*
NC(=S)Nc1ccccc1 [Compound 10, N-phenylthiourea, reference compound] | neither a growth inhibition nor blue zone | – | – | – | – | – | – | – | Rod | > 100 | >100 | >100 | > 100 | >100 | > 100 | > 100 | >100 | >100 | > 100 | Rod** | –
CCCCCCCSC(=N)N [Compound 5, S-heptylisothiourea] | a growth inhibitory zone as well as a blue zone | 200 (≈ 1150 µM) | > 100 | 200 (≈ 1150 µM) | > 100 | > 200 | > 100 | > 200 | Rod | – | – | – | – | – | – | – | – | – | – | Rod** | MIC (B. subtilis 168; [11]): > 100 µg/mL; MIC [3, 12]: > 200 µg/mL; MIC [3, 13]: > 100 µg/mL; Effect on E. coli cell morphology (in words) (E. coli MG1655 [4]; 30° C.): somewhat elongated cells, but not spherical cells
